Patent US20230097707A1, “METHODS AND ARTICLES FOR KEEPING FOOD FRESHER FOR LONGER AND SHELF-LIFE EXTENSION TO ENHANCE FOOD SECURITY AND SAFETY” (priority 2021, published 2023)

How the values were obtained:
[1] = small animal oral toxicity test; assay type: in vivo; conditions: albino rat, aqueous solutions derived from concentrate (EPA/MRID)
Source text: Example 1 is a small animal oral toxicity test of 3-(tri-methoxysilyl)propyldimethyl octadecyl ammonium chloride in aqueous solutions derived from concentrate. The small animal was an albino rat (EPA/MRID.) The result acute oral LD50 at 12.27 g (grams) per kg (kilogram.) That is, the lethal dose in 50% of the test subjects 12.27 grams per kilogram of body weight. This translates to a 100 kg person ingesting 1.227 kg of the raw material (or 1723 liters) at one time. The monomer poses no ingestion hazard.

[2] = tested on: Escherichia coli ATCC 8739; conditions: coated paper, 0.15% by weight of BKC; cited from earlier work
[3] = tested on: Staphylococcus aureus ATCC 6538; conditions: coated paper, 0.15% by weight of BKC; cited from earlier work

Compound	acute oral LD50 [1]	inhibition [2] [%]	inhibition [3] [%]
CCCCCCCCCCCCCCCCCC[N+](C)(C)CCC[Si](OC)(OC)OC.[Cl-] [1-Octadecanaminium, N,N-dimethyl-N-[3-(trimethoxysilyl)propyl]-, chloride (1:1)]	12.27 g (grams) per kg (kilogram.)	–	–
N-Alkyl-N-benzyl-N,N-dimethylammonium chloride [BKC]	–	~100	~100
